Test results published in US5472958A, “2-((nitro)phenoxymethyl) heterocyclic compounds that enhance cognitive function” (Abbott Laboratories, priority 1994, dated 1995).
Where a name gives a salt, the structure may show the parent alone. Read-outs that look alike come from different tables or passages of the source.

Legend:
[1] = target: neuronal nicotinic cholinergic channel receptor; test: [3H]-cytisine binding to neuronal nicotinic cholinergic channel receptors, crude synaptic membranes from whole rat brain
Description: Binding of [^3 H]-cytisine ([^3 H]-CYT) to nicotinic receptors was accomplished using crude synaptic membrane preparations from whole rat brain (Pabreza et al., Molecular Pharmacol., 1990, 39:9). Washed membranes were stored at -80° C. prior to use. Frozen aliquots were slowly thawed and resuspended in 20 volumes of buffer (containing: 120 mM NaCl, 5 mM KCl, 2 mM MgCl2, 2 mM CaCl2 and 50 mM Tris-Cl, pH 7.4 @4° C.). After centrifuging at 20,000×g for 15 minutes, the pellets were resuspended in 30 volumes of buffer. Homogenate (containing 125-150 μg protein) was added to triplicate tubes containing concentrations of test compound and [^3 H]-CYT (1.25 nM) in a final volume of 500 μL. Samples were incubated for 60 minutes at 4° C., then rapidly filtered through Whatman GF/B filters presoaked in 0.5% polyethylimine using 3×4 mL of ice-cold buffer. The filters are counted in 4 mL of Ecolume® (ICN).

CD1 mice = test: Elevated plus-maze, mouse (anxiolytic activity); format: in vivo; settings: for Mouse EPM, improvement in performance at the dose range tested: doses in brackets, time in open arms, 5 min test
Text: (§1) The elevated plus-maze is a conflict test that probes anxiolytic activity of test compounds (Lister, Psychopharmacology, 1987, 92:180). It is based on the fact that exposure of an animal to an elevated open arm leads to an avoidance response considerably stronger than that evoked by exposure to an enclosed arm.
The apparatus required to perform this test in mice is made of plywood and consists of two open arms (17×8 cm) and two enclosed arms (17×8×15 cm) extending from a central platform (8×8 cm). It is mounted on a plywood base rising 39 cm above the floor. Mice are released on the central platform and the time spent in the open and enclosed arms is recorded during a 5 minute test period. The test compounds were administered to CD1 mice 15 minutes before the test.

male Wistar rats = test: Elevated plus-maze, rat (anxiolytic activity); format: in vivo; settings: doses in brackets; time in open arms
Text: as §1
The same protocol was applied in rats (male Wistar strain), but a larger maze was used (open arms 50×10 cm, enclosed arms 50×10×40 cm) raised 50 cm above the floor.

Male CD-1 mice = test: Analgesia testing, automated hot-plate (55° C.); format: in vivo, mouse; settings: latency to tenth jump; morphine at 12, Example 3 at 19 umol/kg
Description: Analgesia was measured using an automated hot-plate analgesia monitor (model #AHP16AN, Omnitech Electronics, Inc., Columbus, Ohio). The temperature of the hot-plate was maintained at 55° C. Male CD-1 mice (Charles River, Portage, Mich.) weighing 30 to 35 g were used for all testing. Mice were placed on the hot-plate and the latency to jump (i.e., first 10 jumps) was recorded. Mice were removed from the apparatus either after ten jumps were made or a maximally-allowed time of 240 sec elapsed, whichever occurred first. The design of the apparatus allowed for testing of several animals (e.g., 8) at once. The latency (sec) until the tenth jump was used for statistical analysis. Data (Table 2) were statistically evaluated with ANOVA (StatView II™ program, Abacus Concepts, Inc., Berkeley, Calif.) and compared to the reference standard analgesic morphine.

[2] = system: cardiac muscarinic receptors; settings: cited from earlier work
[3] = system: cortical muscarinic receptors; settings: cited from earlier work
parietotemporal cortex = parietotemporal cortex of humans; cited from earlier work
[4] = cited from earlier work
nicotinic receptors = settings: chronic nicotine administration; cited from earlier work
rats = settings: acutely- and chronically-administered, rats incl. aged; cited from earlier work
cigarette smokers = settings: double-blind studies; cited from earlier work
[5] = in vivo; cited from earlier work
[6] = [3H]-cytisine (1.25 nM), whole rat brain membranes, 4° C., 60 min

| Compound | Ki [1, 6] [nM] | further results |
| --- | --- | --- |
| CN1CCCC1c1cccnc1 (single isomer, unassigned; (-)) [(-)-nicotine, reference compound] | – | Ki [1]: […]; Increase in time spent in the open arms of the maze vs saline (CD1 mice; 0.62 and 1.9 μmol/kg, p<0.05, 15 minutes before test): significant increase; Mouse EPM, improvement in performance at the dose range tested (CD1 mice): significant [0.19-0.62]; Rat EPM, improvement in performance at the dose range tested (male Wistar rats): significant [1.9] |
| Cl.O=[N+]([O-])c1cccc(OC[C@@H]2CCCN2)c1 [Example 1, 2(S)-(3-(Nitro)phenoxymethyl)pyrrolidine hydrochloride] | 2.9 | Mouse EPM, improvement in performance at the dose range tested (CD1 mice): significant [0.62-1.9]; Rat EPM, improvement in performance at the dose range tested (male Wistar rats): significant [0.19, 6.2] |
| CN1CCC[C@H]1COc1cccc([N+](=O)[O-])c1 [Example 2, 1-Methyl-2(S)-(3-(nitro)phenoxymethyl)pyrrolidine hydrochloride] | 9 | – |
| Cl.O=[N+]([O-])c1cccc(OC[C@H]2CCCN2)c1 [Example 3, 2(R)-(3-(nitro)phenoxymethyl)pyrrolidine hydrochloride] | 2.5 | Percent change from saline (Male CD-1 mice): 60.7% |
| CN1CCC[C@@H]1COc1cccc([N+](=O)[O-])c1 [Example 4, (R)-1-Methyl-2-(3-(nitro)phenoxymethyl)pyrrolidine] | 132 | – |
| Fc1cccc(OC[C@@H]2CCCN2)c1 [Example 5, 2(S)-(3-Fluorophenoxymethyl)-pyrrolidine hydrochloride] | 17.2 | – |
| CN1CCC[C@H]1COc1cccc(F)c1 [Example 6, 2(S)-(3-Fluorophenoxymethyl)-1-methyl-pyrrolidine hydrochloride] | 5.1 | – |
| Fc1cc(F)cc(OC[C@@H]2CCCN2)c1 [Example 7, 2(S)-(3,5-Difluorophenoxymethyl)pyrrolidine hydrochloride] | 22.3 | – |
| CN1CCC[C@H]1COc1cc(F)cc(F)c1 [Example 8, 2(S)-(3,5-Difluorophenoxymethyl)-1-methyl-pyrrolidine hydrochloride] | 15.7 | – |
| Fc1cccc(OC[C@H]2CCCN2)c1 [Example 9, 2(R)-(3-Fluorophenoxymethyl)-pyrrolidine hydrochloride] | 11.6 | – |
| CN1CCC[C@@H]1COc1cccc(F)c1 [Example 10, 2(R)-(3-Fluorophenoxymethyl)-1-methylpyrrolidine hydrochloride] | 90.7 | – |
| Fc1cccc(OC[C@@H]2CCCN2)c1F [Example 11, 2(S)-(2,3-Difluorophenoxymethyl)pyrrolidine hydrochloride] | 74.3 | – |
| CN1CCC[C@H]1COc1cccc(F)c1F [Example 12, 2(S)-(2,3-Difluorophenoxymethyl)-1-methylpyrrolidine hydrochloride] | 81.4 | – |
| Fc1ccc(OC[C@@H]2CCCN2)cc1F [Example 13, 2(S)-(3,4-Difluorophenoxymethyl)pyrrolidine hydrochloride] | 17.5 | – |
| CN1CCC[C@H]1COc1ccc(F)c(F)c1 [Example 14, 2(S)-(3,4-Difluorophenoxymethyl)-1-methylpyrrolidine hydrochloride] | 18 | – |
| CN1CCC[C@H]1COc1cccc(Cl)c1 [Example 15, 2(S)-(3-Chlorophenoxymethyl)-1-methylpyrrolidine hydrochloride] | 37.7 | – |
| CN1CCC[C@H]1COc1ccc(Cl)c(Cl)c1 [Example 16, 2(S)-(3,4-Dichlorophenoxymethyl)-1-methylpyrrolidine hydrochloride] | 112 | – |
| CC(=O)Nc1cccc(OC[C@@H]2CCCN2)c1 [Example 17, (S)-2-(3-(acetamido)phenoxymethyl)pyrrolidine hydrochloride] | 142 | – |
| N#Cc1cccc(OC[C@@H]2CCCN2)c1 [Example 18, (S)-2-(3-cyanophenoxymethyl)pyrrolidine hydrochloride] | 18 | – |
| CN1CCC[C@H]1COc1cccc(C#N)c1 [Example 19, (S)-2-(3-cyanophenoxymethyl)-1-methylpyrrolidine hydrochloride] | 64 | – |
| c1ccc(OC[C@@H]2CCCN2)cc1 [Example 21, 2(S)-(phenoxymethyl)pyrrolidine hydrochloride] | 108 | – |
| O=[N+]([O-])c1cccc(OC[C@@H]2CCN2)c1 [Example 22, 2(S)-(3-(nitro)phenoxymethyl)azetidine methanesulfonate] | 6.8 | – |
| CN1CC[C@@H]1COc1cccc([N+](=O)[O-])c1 [Example 23, (R)-1-methyl-2-(3-(nitro)phenoxymethyl)azetidine hydrochloride] | 29 | – |
| CN1CC[C@]23c4c5ccc(O)c4O[C@H]2[C@@H](O)C=C[C@H]3[C@H]1C5 [Morphine, reference compound] | – | Percent change from saline (Male CD-1 mice): 257% |
| CCN1C(=O)CC2(CCN(C)CC2)C1=O [RS-86] | – | Agonism at cardiac muscarinic receptors [2]: full agonist; Agonism at cortical muscarinic receptors [3]: partial agonist; Potency and selectivity for CNS receptors [3]: poor potency and lack of selectivity for CNS receptors |
| CNC1(C)C2CCC(C2)C1(C)C (stereo not drawn) [mecamylamine] | – | Effect on resting cortical perfusion (parietotemporal cortex): reduces resting cortical perfusion |
| CN1CCC[C@H]1c1cccnc1 [nicotine] | – | Oral bioavailability [4]: poor oral bioavailability; Up-regulation of the number of receptors (nicotinic receptors): 50-100%; Effect on cognitive function (rats): enhances cognitive function in rats; Suppressing or preventing signs and symptoms of withdrawal vs placebo (cigarette smokers): far superior to a placebo; Anxiolytic properties [5]: anxiolytic properties |
